Data published in patent US8802674B2, “Aminopyrimidine derivatives as LRRK2 modulators” (Genentech, Inc., priority 2011, dated 2014).

What follows are compounds tested against LRRK2 (Homo sapiens (Human), UniProt Q5S007, G2019S) (assay: In Vitro LRRK2 LabChip Assay). Conditions: Table 4.
Format: biochemical
Method: In Vitro LRRK2 LabChip Assay
This assay was used to determine a compound's potency in inhibiting activity of LRRK2 by determining, Kiapp, IC50, or percent inhibition values. In a polypropylene plate, LRRK2, fluorescently-labeled peptide substrate, ATP and test compound were incubated together. Using a LabChip 3000 (Caliper Life Sciences), after the reaction the substrate was separated by capillary electrophoresis into two populations: phosphorylated and unphosphorylated. The relative amounts of each were quantitated by fluorescence intensity. LRRK2 Ki was determined according to the equation: Y=V0*(1−((x+Ki*(1+S/Km)+Et)/(2*Et)−(((x+Ki*(1+S/Km)+Et)^2−(4*Et*x))^0.5)/(2*Et))). Ki values in Table 4 and elsewhere herein are shown in μM.
Assay conditions and materials used were as follows:
Compound Plate Preparation:
For serial dilutions, 34.6 μl DMSO was added to columns 3-24. For the assay controls, 37.5 μl DMSO was added to columns 1 and 2 of rows A and P. a,d and 50 μl 25 μM G-028831 (Staurosporine) was added to columns 1 and 2, row B. For the samples: to start at 100 μM, 37.5 μl DMSO was to columns 1 and 2, then 12.5 μl 10 mM compound; to start at 10 μM, 78 μl DMSO was added to columns 1 & 2, then 2 μl 10 mM compound; and to start at 1 μM, 25 μM compound (2 μl 10 mM cmpd+798 μl DMSO) was added to empty columns 1 and 2. A Precision instrument was used to perform 1:3.16 serial dilutions (“PLK_BM_serial_halflog”).
ATP was diluted to 282.1 μM in Complete Kinase Buffer (final concentration was 130 μM).
Total and Blank Preparation:
In Complete Reaction Buffer, substrate was diluted to 4 μM. Equal volumes of Complete Reaction Buffer and 4 μM substrate were combined to obtain the blank. Equal volumes of Complete Reaction Buffer and 4 μM substrate were combined and to the combined solution was added 2× final LRRK2 concentration.
To a 50 μl polypropylene plate, 5 μl/well buffer/substrate was added by hand to Blank wells. A Biomek FX was used to start the kinase reaction (“PLK SAR 23 ATP”). The following were added to the appropriate wells:
5 μl/well compound/ATP in Assay Plate;
5 μl/well kinase/substrate in Assay Plate;
The plate was incubated for 2 hours in the dark. Biomek FX was used to stop the kinase reaction (“PLK Stop”), and 10 μl/well Stop solution was added to the Assay Plate. Results were read on the LabChip 3000.
The LabChip 3000 was run using the job “LRRK2IC50” with the following job settings: […]

LRRK2, sequence (Q5S007 970-2527 G2019S limits assumed): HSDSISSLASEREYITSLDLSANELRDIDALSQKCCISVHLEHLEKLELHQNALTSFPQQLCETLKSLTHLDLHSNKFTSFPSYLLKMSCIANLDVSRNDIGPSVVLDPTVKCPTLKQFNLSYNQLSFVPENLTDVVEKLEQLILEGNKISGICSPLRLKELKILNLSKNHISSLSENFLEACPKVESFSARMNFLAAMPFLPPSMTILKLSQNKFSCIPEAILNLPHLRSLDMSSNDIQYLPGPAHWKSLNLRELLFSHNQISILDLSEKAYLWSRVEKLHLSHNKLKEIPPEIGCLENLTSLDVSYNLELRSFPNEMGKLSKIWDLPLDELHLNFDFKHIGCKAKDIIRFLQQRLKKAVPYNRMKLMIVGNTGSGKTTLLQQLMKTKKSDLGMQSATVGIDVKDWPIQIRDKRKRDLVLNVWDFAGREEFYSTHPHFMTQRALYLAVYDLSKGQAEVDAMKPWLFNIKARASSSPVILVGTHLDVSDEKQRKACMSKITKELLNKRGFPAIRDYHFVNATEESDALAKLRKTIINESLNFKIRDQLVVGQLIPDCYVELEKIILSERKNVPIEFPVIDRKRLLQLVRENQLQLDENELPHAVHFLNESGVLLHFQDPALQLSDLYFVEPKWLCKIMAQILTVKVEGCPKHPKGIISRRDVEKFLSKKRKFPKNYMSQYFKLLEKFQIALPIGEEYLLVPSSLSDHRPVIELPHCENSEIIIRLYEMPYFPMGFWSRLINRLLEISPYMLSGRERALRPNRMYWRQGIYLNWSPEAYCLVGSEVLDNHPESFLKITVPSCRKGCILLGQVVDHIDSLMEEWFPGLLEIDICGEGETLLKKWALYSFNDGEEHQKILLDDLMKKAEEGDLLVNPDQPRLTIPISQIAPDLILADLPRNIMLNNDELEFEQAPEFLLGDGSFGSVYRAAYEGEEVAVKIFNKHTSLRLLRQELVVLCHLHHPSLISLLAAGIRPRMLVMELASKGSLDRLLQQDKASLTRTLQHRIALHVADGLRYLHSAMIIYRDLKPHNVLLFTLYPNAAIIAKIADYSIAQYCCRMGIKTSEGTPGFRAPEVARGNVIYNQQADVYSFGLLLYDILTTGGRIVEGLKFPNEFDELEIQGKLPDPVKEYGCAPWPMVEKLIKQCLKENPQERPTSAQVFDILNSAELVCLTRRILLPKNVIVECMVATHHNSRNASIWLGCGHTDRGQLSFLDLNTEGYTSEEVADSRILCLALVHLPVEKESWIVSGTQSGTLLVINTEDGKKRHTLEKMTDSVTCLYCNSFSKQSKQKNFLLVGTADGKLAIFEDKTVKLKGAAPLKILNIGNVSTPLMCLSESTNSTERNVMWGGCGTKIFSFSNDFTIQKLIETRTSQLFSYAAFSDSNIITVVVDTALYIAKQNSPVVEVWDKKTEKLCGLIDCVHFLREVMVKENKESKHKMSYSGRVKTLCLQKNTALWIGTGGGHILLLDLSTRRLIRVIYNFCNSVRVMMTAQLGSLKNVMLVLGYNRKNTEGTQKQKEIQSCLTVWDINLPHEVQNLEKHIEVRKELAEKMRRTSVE

Q: `CNc1nc(Nc2cc(OC)c(C(=O)N3CCNCC3)cc2Cl)ncc1Cl` [Example 150, [5-Chloro-4-(5-chloro-4-methylamino-pyrimidin-2-ylamino)-2-methoxy-phenyl]-piperazin-1-yl-methanone] was tested. Which Ki did it give?
A: 8.9 nM

Q: With `CNc1nc(Nc2ccc(C(=O)N3CC(N4CCOCC4)C3)cc2OC)ncc1Cl` [Example 89, [4-(5-Chloro-4-methylamino-pyrimidin-2-ylamino)-3-methoxy-phenyl]-(3-morpholin-4-yl-azetidin-1-yl)-methanone] as the compound, how does the Ki read?
A: 2.7 nM

Q: Which Ki does the source give for `CNc1nc(Nc2cc(OC)c(C(=O)NC3CC3)cc2Cl)ncc1C(F)(F)F` [Example 154, 5-Chloro-N-cyclopropyl-2-methoxy-4-(4-methylamino-5-trifluoromethyl-pyrimidin-2-ylamino)-benzamide] here?
A: 5.2 nM

Q: With `CNc1nc(Nc2cc(OC)c(C(=O)N3CCNCC3)cc2Cl)ncc1C(F)(F)F` [Example 176, [5-Chloro-2-methoxy-4-(4-methylamino-5-trifluoromethyl-pyrimidin-2-ylamino)-phenyl]-piperazin-1-yl-methanone] as the compound, how does the Ki read?
A: 4.1 nM

Q: For `CNc1nc(Nc2ccc(C(=O)N(C)C)cc2OC)ncc1Cl` [Example 4, 4-(5-Chloro-4-methylamino-pyrimidin-2-ylamino)-3-methoxy-N,N-dimethyl-benzamide], which Ki is on record?
A: 6.1 nM

Q: With `CNc1nc(Nc2ccc(C(=O)N3CCOCC3)cc2Cl)ncc1Cl` [Example 115, [3-Chloro-4-(5-chloro-4-methylamino-pyrimidin-2-ylamino)-phenyl]-morpholin-4-yl-methanone] as the compound, how does the Ki read?
A: 6 nM

Q: Which Ki does the source give for `CNc1nc(Nc2cc(OC)c(C(=O)N(C)C)cc2Cl)ncc1C(F)(F)F` [Example 158, 5-Chloro-2-methoxy-N,N-dimethyl-4-(4-methylamino-5-trifluoromethyl-pyrimidin-2-ylamino)-benzamide] here?
A: 6.8 nM

Q: With `CNc1nc(Nc2cc(F)c(C(=O)N3CCOCC3)cc2OC)ncc1C(F)(F)F` [Example 239, [2-Fluoro-5-methoxy-4-(4-methylamino-5-trifluoromethyl-pyrimidin-2-ylamino)-phenyl]-moipholin-4-yl-methanone] as the compound, how does the Ki read?
A: 2.9 nM

Q: Which Ki does the source give for `CNc1nc(Nc2ccc(C(=O)N3CC(F)(F)OC(F)(F)C3)cc2OC)ncc1C#N` [Example 191, 2-(2-methoxy-4-(2,2,6,6-tetrafluoromorpholine-4-carbonyl)phenylamino)-4-(methylamino) pyrimidine-5-carbonitrile] here?
A: 20.8 nM

Q: Which Ki does the source give for `CNc1nc(Nc2ccc(C(=O)N3CCOCC3)cc2OC)ncc1C1CC1` [Example 103, [4-(5-Cyclopropyl-4-methylamino-pyrimidin-2-ylamino)-3-methoxy-phenyl]-morpholin-4-yl-methanone] here?
A: 89.5 nM

Q: With `CNc1nc(Nc2cc(OC)c(C(=O)N3C[C@@H](C)N[C@@H](C)C3)cc2Cl)ncc1Cl` [Example 172, [5-Chloro-4-(5-chloro-4-methylamino-pyrimidin-2-ylamino)-2-methoxy-phenyl]-((3R,5S)-dimethyl-piperazin-1-yl)-methanone] as the compound, how does the Ki read?
A: 33.3 nM

Q: With `CNc1nc(Nc2cc(OC)c(C(=O)NCC(C)(C)O)cc2Cl)ncc1C(F)(F)F` [Example 175, 5-Chloro-N-(2-hydroxy-2-methyl-propyl)-2-methoxy-4-(4-methylamino-5-trifluoromethyl-pyrimidin-2-ylamino)-benzamide] as the compound, how does the Ki read?
A: 7.9 nM

Q: For `CNc1nc(Nc2ccc(CC(=O)N3CCOCC3)cc2OC)ncc1Cl` [Example 222, 2-[4-(5-Chloro-4-methylamino-pyrimidin-2-ylamino)-3-methoxy-phenyl]-1-morpholin-4-yl-ethanone], which Ki is on record?
A: 9 nM

Q: Which Ki does the source give for `CNc1nc(Nc2cc(OC)c(C(N)=O)cc2Cl)ncc1Cl` [Example 141, 5-Chloro-4-(5-chloro-4-methylamino-pyrimidin-2-ylamino)-2-methoxy-benzamide] here?
A: 9.3 nM

Q: How did the Ki turn out when `CNc1nc(Nc2ccc(C(=O)N3CCOCC3)cc2O)ncc1Cl` [Example 82, [4-(5-Chloro-4-methylamino-pyrimidin-2-ylamino)-3-hydroxy-phenyl]-morpholin-4-yl-methanone] was run?
A: 28.9 nM

Q: For `CNc1nc(Nc2cc(OC)c(C(=O)NC(C)(C)C)cc2Cl)ncc1Cl` [Example 157, N-tert-Butyl-5-chloro-4-(5-chloro-4-methylamino-pyrimidin-2-ylamino)-2-methoxy-benzamide], which Ki is on record?
A: 28.2 nM

Q: For `[2H]C1([2H])OC([2H])([2H])C([2H])([2H])N(C(=O)c2cc(Cl)c(Nc3ncc(C(F)(F)F)c(NC)n3)cc2OC)C1([2H])[2H]` [Example 236, (5-chloro-2-methoxy-4-(4-(methylamino)-5-(trifluoromethyl)pyrimidin-2-ylamino)phenyl) (perdeuteromorpholino) methanone], which Ki is on record?
A: 4.2 nM

Q: For `CNc1nc(Nc2ccc(C(=O)NCC(F)F)cc2OC)ncc1C#N` [Example 205, 4-(5-Cyano-4-methylamino-pyrimidin-2-ylamino)-N-(2,2-difluoro-ethyl)-3-methoxy-benzamide], which Ki is on record?
A: 12.1 nM

Same assay, conditions: Table 5

Q: With `CCNc1nc(Nc2ccc(C(=O)N3CCOCC3)cc2OC)ncc1C(F)(F)F` [Example 257] as the compound, how does the Ki read?
A: 2 nM

Q: How did the Ki turn out when `COc1cc(C(=O)N2CCOCC2)c(Cl)cc1Nc1ncc(C(F)(F)F)c(OC)n1` [Example 262, [2-Chloro-5-methoxy-4-(4-methoxy-5-trifluoromethyl-pyrimidin-2-ylamino)-phenyl]-morpholin-4-yl-methanone] was run?
A: 24 nM

Same assay, conditions: Table 6

Q: How did the Ki turn out when `CNc1nc(Nc2ccc(C(=O)N3CC4CCC(C3)O4)cc2OC)ncc1C(F)(F)F` [Example 272, [3-Methoxy-4-(4-methylamino-5-trifluoromethyl-pyrimidin-2-ylamino)-phenyl]-(8-oxa-3-aza-bicyclo[3.2.1]oct-3-yl)-methanone] was run?
A: 1.7 nM

Q: Which Ki does the source give for `CCNc1nc(Nc2cc(F)c(C(=O)N(C)CCOC)cc2OC)ncc1C(F)(F)F` [Example 304, 4-(4-Ethylamino-5-trifluoromethyl-pyrimidin-2-ylamino)-2-fluoro-5-methoxy-N-(2-methoxy-ethyl)-N-methyl-benzamide] here?
A: 1.6 nM

Q: Which Ki does the source give for `CNc1nc(Nc2cc(OC)c(C(=O)NC3(C#N)CC3)cc2Cl)ncc1C(F)(F)F` [Example 265, 5-Chloro-N-(1-cyano-cyclopropyl)-2-methoxy-4-(4-methylamino-5-trifluoromethyl-pyrimidin-2-ylamino)-benzamide] here?
A: 4.2 nM

Q: Which Ki does the source give for `CNc1nc(Nc2ccc(C(=O)N3CCC(C#N)CC3)cc2OC)ncc1C(F)(F)F` [Example 278, 1-[3-Methoxy-4-(4-methylamino-5-trifluoromethyl-pyrimidin-2-ylamino)-benzoyl]-piperidine-4-carbonitrile] here?
A: 1.7 nM

Q: How did the Ki turn out when `CNc1nc(Nc2cc(OC)c(C(=O)N3CCOCC3)cc2Cl)ncc1C(F)(F)F` [Example 296, [5-Chloro-2-methoxy-4-(4-methylamino-5-trifluoromethyl-pyrimidin-2-ylamino)-phenyl]-morpholin-4-yl-methanone] was run?
A: 2 nM

Q: Which Ki does the source give for `CCN(CCOC)C(=O)c1cc(OC)c(Nc2ncc(C(F)(F)F)c(NC)n2)cc1F` [Example 308, N-Ethyl-2-fluoro-5-methoxy-N-(2-methoxy-ethyl)-4-(4-methylamino-5-trifluoromethyl-pyrimidin-2-ylamino)-benzamide] here?
A: 3.5 nM

Q: With `CCNc1nc(Nc2ccc(C(=O)N3CCOCC3)cc2OC(F)(F)F)ncc1C(F)(F)F` [Example 312, (4-(4-(ethylamino)-5-(trifluoromethyl)pyrimidin-2-ylamino)-3-(trifluoromethoxy)phenyl)(morpholino) methanone] as the compound, how does the Ki read?
A: 28 nM

Q: How did the Ki turn out when `CNc1nc(Nc2cc(OC)c(C(=O)N3CCOCC3)cc2Cl)ncc1Br` [Example 288, [4-(5-Bromo-4-methylamino-pyrimidin-2-ylamino)-5-chloro-2-methoxy-phenyl]-morpholin-4-yl-methanone] was run?
A: 2.6 nM

Q: How did the Ki turn out when `CCNc1nc(Nc2ccc(C(=O)N(C)CCOC)cc2OC)ncc1C(F)(F)F` [Example 302, 4-(4-Ethylamino-5-trifluoromethyl-pyrimidin-2-ylamino)-3-methoxy-N-(2-methoxy-ethyl)-N-methyl-benzamide] was run?
A: 2.3 nM

Q: Which Ki does the source give for `CCNc1nc(Nc2cc(F)c(C(=O)N3CCC[C@H]3COC)cc2OC)ncc1C(F)(F)F` [Example 306, [4-(4-Ethylamino-5-trifluoromethyl-pyrimidin-2-ylamino)-2-fluoro-5-methoxy-phenyl]-((S)-2-methoxymethyl-pyrrolidin-1-yl)-methanone] here?
A: 0.6 nM

Q: With `CNc1nc(Nc2ccc(C(=O)N(C)CCOC)cc2OC)ncc1C(F)(F)F` [Example 301, 3-Methoxy-N-(2-methoxy-ethyl)-N-methyl-4-(4-methylamino-5-trifluoromethyl-pyrimidin-2-ylamino)-benzamide] as the compound, how does the Ki read?
A: 5.1 nM
